Data as given in US7651661B2, “Medical devices with broad spectrum antimicrobial activity” (Board of Regents, the University of Texas System, priority 2001, dated 2010).

Tested on: PS4205 (Pseudomonas aeruginosa)
Assay: Zones of inhibition of impregnated devices, modified Kirby-Bauer technique
Assay type: cell-based
Experimental: Potassium tert-butoxide in THF, 7.35 ml of 1M solution, was added to a solution of CHX diacetate, 1.533 g; 2.45 mmol in 35 ml THF. The resulting heterogeneous solution was stirred for 20 minutes, then added to a solution GV, 1.0 g; 2.45 mmol, in 30 ml THF (GV used as an example of Triarylmethane Dye). The mixture was stirred at ambient conditions for 1 hour, then placed under the hood overnight to evaporate the solvent. The resulting residue was dissolved in 30 ml DCM (or MeOH). When applicable, the base (such as neutral form of chlorhexidine) is added to a stirring solution of dye (such as GV) in DCM and the resulting mixture is stirred for at least 1 h. With anionic dyes, dissolution is achieved with the addition of at least one equivalent of a quaternary amine (such as tetraethylammonium) prior to addition of the base. One-centimeter device segments were immersed in the DCM solution for the appropriate period, generally PVC and PU for 10 minutes; Silicone (Si) and Silk Suture for 2 hours. The devices were removed from the solution, and traces of solution were removed from the lumen when applicable. The impregnated devices were placed under the hood to dry for at least 4 hours, preferably over night, then washed with distilled water until the washings were colorless or very faint, and finally placed under an aseptic hood to dry under ambient conditions for at least 4 hours, preferably overnight.
The antimicrobial activity of impregnated catheters was evaluated in duplicate by a modified Kirby-Bauer technique. BBL Mueller Hinton II agar plates (obtained from Fisher Scientific) were inoculated with 0.5 McFarland of the appropriate microorganism (hospital isolates from the MD Anderson Cancer Center). Then 10 mm segments of impregnated devices were embedded in the inoculated plates and placed in an incubator at about 37° C. for at least 18 hours. Zones of inhibition were measured perpendicular to the long axis of the device. Bioactivity against yeast constituted of two zones; a large outer zone of partial growth inhibition, and an inner smaller zone of complete inhibition. […]

[1] = PVC and silicone (Si) devices impregnated with the reagent alone

| Compound | activity against Pseudomonas aeruginosa [1] | activity against Pseudomonas aeruginosa (after impregnating the surfaces of various polymers, including polyvinylchloride) |
| --- | --- | --- |
| CN(C)c1ccc(C(=C2C=CC(=[N+](C)C)C=C2)c2ccc(N(C)C)cc2)cc1 [GV, Gentian violet] | no activity | no activity |
| [H]/N=C(\N/C(=N/[H])NCCCCCCNC(=N)NC(=N)Nc1ccc(Cl)cc1)Nc1ccc(Cl)cc1 [CHX, chlorhexidine] | no activity |  |
